Here are results for two substances from patent US7741431B2, “Liposomes containing novel targeting and/or fusogenic peptides, preparations containing them and therapeutic use thereof” (The United States of America as represented by the …, priority 2005, dated 2010).

Entries after “also recorded” stand apart in the source; their conditions may differ.

The nature of assay [1]: Liposome fusion assay (Rhodamine B R18 dequenching). The text has this: Liposomes are picked-up by cells by endocytosis and form an endosome. Within a few minutes the pH in the endosome drops to 5 and degradation begins. In order to accelerate the fusion of the liposome with the endosome membrane and release its DNA content into the cytoplasm, fusogenic peptides (Plank et al., 1994, Puyal et al., 1994), triggered by the low pH, are integrated into the liposomes membrane (0.1-2%). The most suitable fusogenic peptide and its concentration in the liposome are selected, using in-vitro fluorescence method (Hoekstra et al., 1984) at different pH levels.
Rhodamine B (R18) quenching curve: Rhodamine is characterized by self-quenching, which increases linearly with increasing concentration of R18. […] A total fusion of the two types of liposomes would result in a reduction of R18 concentration or quenching by ˜50%. Since liposomes also tend to fuse with their own type, this high level of fusion can never be achieved.
Liposomes containing 8 Mol % of R18 are mixed with liposomes conjugated to the fusion peptide at pH 7.4 and the fluorescence is measured using […] at λ=550 nm and emission at λ=580 nm. The pH is adjusted to 5.0 by adding few drops of 1N HCl and the change in fluorescence is measured. The total fluorescence is then determined by treating the mixture with Triton X-100. […]

In assay [2] the test system is lung epithelial cells (A-549). In kind it is cell-based, human.
The next assay relates to mast cells (RBL-2H3). In kind it is cell-based.

“SEQ ID NO: 2: fusogenic peptide derived from the amphiphatic, pH-dependent peptide of influenza virus hemagglutinin (CGYWGDIMGEWGDEIFGEIAGFLG)”: in assay [1], the “activity as a fusogen” value was “highly active”.
Consider “SEQ ID NO: 1: targeting peptide whose sequence derives from endothelin-1, for lung mast cells and lung epithelial cells (CHLDIIW)”, for which the “binding / targeting to lung epithelial cells” value in assay [2] is listed as “efficient targeting peptide; also recorded: high affinity”. In addition, the “binding / targeting to mast cells” value in the assay with mast cells (RBL-2H3) is recorded as “efficient targeting peptide; also recorded: high affinity”.
